Laboratory results: patent US12583873B2, “Amino acid mineral complex having immunopotentiating activity and composition for foods, pharmaceuticals, or feeds comprising same” (priority 2018, dated 2026)
Values joined by “and” are separate entries in the source; they are usually repeats but may differ in a detail not shown here. Identical values can stand only once. “Also recorded” adds a separate entry of the source. Like-named read-outs stand apart in the source and are kept apart here.

What was measured:
[1] = test system: H1N1 virus; assay: Body weight change of H1N1-infected mice; format: in vivo; details: H1N1-infected ICR mice; for Body weight, Start point (day 0): baseline before oral 20 μg/kg/day; for Body weight as compared to the negative control group / Body weight, End point (day 5): oral 20 μg/kg/day for 5 days; for Body weight, End point (day 5): start point 100.0
[2] = pig, in vivo
[3] = test system: immunoglobulin (IgG) in serum; details: pig, in vivo
[4] = test system: Foot-and-mouth disease antibody (FMDV type 0); details: pig, in vivo
[5] = pig, in vivo; remark: listed apart in the source
[6] = test system: H1N1 virus; assay: H1N1 virus content in lung tissue of mice; format: in vivo; details: oral 20 μg/kg/day for 5 days; for Tissues virus titers: lung tissue of H1N1-infected ICR mice

Molecule	Body weight, Start point (day 0) [1]	Body weight as compared to the negative control group [1]	Body weight, End point (day 5) [1]	Zinc [2]	IgG [3]	Antibody titer (PI) [4]	Positive rate [4]	Positive rate for the foot-and-mouth disease antibody [4]	Body weight, End time [5]	Body weight, Start time [5]	Tissues virus titers [6]	Immunoglobulin content in blood as compared to CON 1 and CON 2 [3]	Production of the foot-and-mouth disease antibody as compared to CON 1 and CON 2 [4]	Body weight as compared to CON 1 and CON 2 [5]	Zinc content in blood as compared to CON 1 and CON 2 [2]	IgG ([3]; hydrate)	Immunoglobulin content in blood as compared to CON 1 and CON 2 ([3]; hydrate)	Production of the foot-and-mouth disease antibody as compared to CON 1 and CON 2 ([4]; hydrate)	Virus content in the lung tissue ([6]; H1N1-infected ICR mice)
O=S(=O)([O-])[O-].[Zn+2] [CON 2, zinc sulfate]	100.0	decreased body weight	99.9a	98c μg/dL	466b mg/dL	47.52b	50	50%	53.74b	22.56	4.4b Log10 TCID50								
zinc-aspartic acid complex [Comparative Example 3]	100.0 ^	did not show significant increase in body weight	103.7ab		489b ^ mg/dL	54.45b	75	75%	54.55a	22.56 ^	3.9b Log10 TCID50	not significantly different	increased slightly	slight increase in body weight					
zinc-aspartic acid complex [Example 1-1]	100.0 ^	did not show significant increase in body weight	104.8ab		480b mg/dL	51.88b	75	75%	54.43ab	22.56 ^	4.1b Log10 TCID50	not significantly different	increased slightly	slight increase in body weight					
[O-2].[Zn+2] [CON 1, zinc oxide]				100c μg/dL	472b mg/dL	47.38b	50	50%	53.62b	22.56									
N[C@@H](CC(=O)[O-])C(=O)[O-].O.[Zn+2] [Example 1-2, zinc aspartate hydrate]	100.0	did not show significant increase in body weight	106.8b					100%		22.56 ^	2.1a Log10 TCID50			slight increase in body weight	increased significantly	504ab mg/dL and 546a mg/dL	significant increase; also recorded: distinct, although not significant, increase	increased slightly; also recorded: Significant increase	decreased significantly
